Assays:
PI5P4Kγ = molecular target: T1, PI5P4Kγ (Homo sapiens, UniProt Q8TBX8, E153T/N195G/E196V/D197E, form not given); details: read-out: Km (μM ATP); PtdIns5P co-substrate, 10 mM MgCl2, pH 7.4, 30 °C, ATP 0–150 μM
T1 construct: gene PIP4K2C

PI5P4Kβ = molecular target: T2, PI5P4Kβ (Homo sapiens, UniProt P78356); test: radiometric lipid kinase assay, TLC; format: biochemical; details: read-out: Km (μM ATP); PtdIns5P co-substrate, 10 mM MgCl2, pH 7.4, 30 °C, ATP 0–150 μM
T2 construct: gene PIP4K2B; full-length cDNA in pGEX6P, E. coli BL21(DE3), GST fusion or GST cleaved by PreScission; mutant PI5P4Kβ+ His-tagged; homodimer
T2 sequence (P78356 1-416): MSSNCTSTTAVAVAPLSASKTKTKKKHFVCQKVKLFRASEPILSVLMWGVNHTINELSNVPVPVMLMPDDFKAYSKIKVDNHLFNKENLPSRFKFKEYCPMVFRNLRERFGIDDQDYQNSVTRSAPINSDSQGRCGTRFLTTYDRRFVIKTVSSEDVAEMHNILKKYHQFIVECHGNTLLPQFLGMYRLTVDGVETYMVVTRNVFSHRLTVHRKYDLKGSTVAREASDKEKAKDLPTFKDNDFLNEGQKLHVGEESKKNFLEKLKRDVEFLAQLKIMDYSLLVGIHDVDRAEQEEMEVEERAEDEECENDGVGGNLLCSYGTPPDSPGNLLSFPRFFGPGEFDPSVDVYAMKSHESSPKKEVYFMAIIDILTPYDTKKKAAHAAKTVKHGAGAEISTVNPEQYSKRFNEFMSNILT
Text: radiometric lipid kinase assay, TLC on PI5P4Kβ

dPIP4K = molecular target: T3, dPIP4K (Drosophila melanogaster, UniProt A4V141); test: radiometric lipid kinase assay, TLC; format: biochemical; details: PtdIns5P co-substrate, 10 mM MgCl2, pH 7.4, 30 °C; labelled compound
T3 construct: gene PIP4K; pGEX6P, E. coli BL21(DE3), GST fusion or GST cleaved by PreScission
T3 sequence (A4V141 1-404): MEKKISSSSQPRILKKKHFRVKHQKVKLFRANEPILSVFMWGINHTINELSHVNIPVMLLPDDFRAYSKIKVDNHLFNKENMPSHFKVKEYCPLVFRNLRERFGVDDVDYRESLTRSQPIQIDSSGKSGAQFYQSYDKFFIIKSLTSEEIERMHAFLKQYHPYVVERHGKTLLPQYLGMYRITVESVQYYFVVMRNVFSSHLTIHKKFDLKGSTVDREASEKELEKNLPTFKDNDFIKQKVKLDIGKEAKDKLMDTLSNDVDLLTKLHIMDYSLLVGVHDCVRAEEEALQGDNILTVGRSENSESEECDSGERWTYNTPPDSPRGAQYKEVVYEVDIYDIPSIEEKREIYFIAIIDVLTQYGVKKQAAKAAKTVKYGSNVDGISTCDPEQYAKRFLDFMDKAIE

PPK-2 = molecular target: T4, PPK-2 (Caenorhabditis elegans, UniProt Q9BL73); test: radiometric lipid kinase assay, TLC; format: biochemical; details: PtdIns5P co-substrate, 10 mM MgCl2, pH 7.4, 30 °C; labelled compound
T4 construct: pGEX6P, E. coli BL21(DE3), GST fusion or GST cleaved by PreScission
T4 sequence (Q9BL73 1-401): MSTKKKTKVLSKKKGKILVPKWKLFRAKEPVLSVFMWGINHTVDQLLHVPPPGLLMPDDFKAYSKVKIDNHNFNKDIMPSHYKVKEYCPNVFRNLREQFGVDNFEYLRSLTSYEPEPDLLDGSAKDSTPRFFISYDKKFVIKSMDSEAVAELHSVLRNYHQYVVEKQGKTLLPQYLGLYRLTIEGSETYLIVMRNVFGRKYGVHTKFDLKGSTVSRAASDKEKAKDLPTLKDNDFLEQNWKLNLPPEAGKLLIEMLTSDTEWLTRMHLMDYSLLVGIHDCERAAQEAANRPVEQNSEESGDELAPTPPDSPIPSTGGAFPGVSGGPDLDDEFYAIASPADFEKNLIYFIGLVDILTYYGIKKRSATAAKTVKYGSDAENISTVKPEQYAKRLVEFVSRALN

T1 sequence (Q8TBX8 2-421 E153T/N195G/E196V/D197E, form open): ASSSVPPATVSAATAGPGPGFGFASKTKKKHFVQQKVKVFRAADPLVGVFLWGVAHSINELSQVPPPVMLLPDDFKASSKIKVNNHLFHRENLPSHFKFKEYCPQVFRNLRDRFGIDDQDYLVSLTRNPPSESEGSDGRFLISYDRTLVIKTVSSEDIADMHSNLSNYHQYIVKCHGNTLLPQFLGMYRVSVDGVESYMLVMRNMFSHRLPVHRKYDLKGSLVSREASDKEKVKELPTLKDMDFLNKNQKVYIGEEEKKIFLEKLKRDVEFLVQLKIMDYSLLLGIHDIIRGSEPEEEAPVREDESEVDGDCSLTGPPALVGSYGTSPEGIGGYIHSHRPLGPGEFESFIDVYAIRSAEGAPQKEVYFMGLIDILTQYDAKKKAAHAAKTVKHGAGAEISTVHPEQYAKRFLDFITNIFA

Nc1ncnc2c1ncn2[C@@H]1O[C@H](COP(=O)(O)OP(=O)(O)OP(=O)(O)O)[C@@H](O)[C@H]1O [ATP]
Km (PI5P4Kγ): 3.96 µM
Km (PI5P4Kβ): 7.58 µM
radiometric lipid kinase assay, TLC (dPIP4K): We assayed the PI5P4K activity of recombinant dPIP4K from D. melanogaster
radiometric lipid kinase assay, TLC (PPK-2): PPK-2 from C. elegans had a similar specific activity to that of PI5P4Kγ
